Results published in ChEMBL document CHEMBL4715696, “In vitro synergistic anticancer activity of the combination of T-type calcium channel blocker and chemotherapeutic agent in A549 cells” (Bioorg Med Chem Lett, 2016).
pIC50: −log10 of the molar value.

Tests used:
A549 [1] = assay: Cytotoxicity against human A549 cells assessed as reduction in cell viability by MTT assay; format: functional, cell-based
A549 [2] = assay: Induction of cell cycle arrest in human A549 cells assessed as accumulation at sub G1 phase at 5 uM after 24 hrs by flow cytometric analysis (reference value: 7.8%); format: functional
A549 [3] = assay: Decrease in cell cycle associated protein expression in human A549 cells assessed as fold change in CDK2 expression at 10 uM after 48 hrs by Western blot analysis (reference value: 0.48 to 0.79); format: functional
A549 [4] = assay: Decrease in cell cycle associated protein expression in human A549 cells assessed as reduction in CDK4 expression after 48 hrs by Western blot analysis; format: functional, cell-based; conditions: dose 2.5-10 µM
A549 [5] = assay: Decrease in cell cycle associated protein expression in human A549 cells assessed as fold change in CDK4 expression at 10 uM after 48 hrs by Western blot analysis (reference value: 0.62 to 0.87); format: functional
A549 [6] = assay: Decrease in cell cycle associated protein expression in human A549 cells assessed as fold change in CDK4 expression at 10 uM after 6 hrs by Western blot analysis (reference value: 0.87); format: functional
A549 [7] = assay: Decrease in cell cycle associated protein expression in human A549 cells assessed as fold change in CDK6 expression at 2.5 uM after 48 hrs by Western blot analysis (reference value: 1.05); format: functional
A549 [8] = assay: Decrease in cell cycle associated protein expression in human A549 cells assessed as fold change in CDK6 expression at 10 uM after 6 hrs by Western blot analysis (reference value: 0.7); format: functional
A549 [9] = assay: Decrease in cell cycle associated protein expression in human A549 cells assessed as fold change in cyclin D1 expression at 10 uM after 48 hrs by Western blot analysis (reference value: 0.39 to 0.68); format: functional
A549 [10] = assay: Decrease in cell cycle associated protein expression in human A549 cells assessed as fold change in cyclin D1 expression at 10 uM after 6 hrs by Western blot analysis (reference value: 0.68); format: functional
A549 [11] = assay: Decrease in cell cycle associated protein expression in human A549 cells assessed as fold change in cyclin D1 expression at 10 uM after 24 hrs by Western blot analysis (reference value: 0.68); format: functional
A549 [12] = assay: Decrease in cell cycle associated protein expression in human A549 cells assessed as fold change in cyclin D2 expression at 10 uM after 6 hrs by Western blot analysis (reference value: 0.77); format: functional
A549 [13] = assay: Decrease in cell cycle associated protein expression in human A549 cells assessed as reduction in cyclin D3 expression after 48 hrs by Western blot analysis; format: functional, cell-based; conditions: dose 2.5-10 µM
A549 [14] = assay: Decrease in cell cycle associated protein expression in human A549 cells assessed as reduction in cyclin D3 expression at 10 uM by Western blot analysis; format: functional, cell-based; conditions: time 6-48 hrs, TDE = time-dependent effect
A549 [15] = assay: Decrease in cell cycle associated protein expression in human A549 cells assessed as fold change in cyclin D3 expression at 10 uM after 12 hrs by Western blot analysis (reference value: 1.09); format: functional
A549 [16] = assay: Decrease in cell cycle associated protein expression in human A549 cells assessed as fold change in cyclin E expression at 5 uM after 48 hrs by Western blot analysis (reference value: 0.37); format: functional
A549 [17] = assay: Decrease in cell cycle associated protein expression in human A549 cells assessed as reduction in cyclin E expression at 10 uM by Western blot analysis; format: functional, cell-based; conditions: time 6-48 hrs, TDE = time-dependent effect
A549 [18] = assay: Decrease in cell cycle associated protein expression in human A549 cells assessed as fold change in cyclin E expression at 10 uM after 12 hrs by Western blot analysis (reference value: 0.55); format: functional
A549 [19] = assay: Upregulation of p27KIP1 protein expression in human A549 cells after 48 hrs by Western blot analysis; format: functional, cell-based; conditions: dose 2.5-10 µM
[20] = Upregulation of p27KIP1 protein expression in human A549 cells assessed as fold change in expression at 2.5 uM after 48 hrs by Western blot analysis (reference value: 0.48); format: functional
[21] = Upregulation of p27KIP1 protein expression in human A549 cells assessed as fold change in expression at 10 uM after 6 hrs by Western blot analysis (reference value: 0.83); format: functional
[22] = Upregulation of p27KIP1 protein expression in human A549 cells assessed as fold change in expression at 10 uM after 12 hrs by Western blot analysis (reference value: 0.83); format: functional
[23] = Upregulation of p27KIP1 protein expression in human A549 cells assessed as fold change in expression at 10 uM after 24 hrs by Western blot analysis (reference value: 0.83); format: functional
[24] = Upregulation of p27KIP1 protein expression in human A549 cells assessed as fold change in expression at 10 uM after 36 hrs by Western blot analysis (reference value: 0.83); format: functional
[25] = Metabolic stability in human liver microsomes assessed as parent compound remaining at 1 uM measured for 30 mins; format: ADME, Microsome; conditions: read-out: Stabilty
[26] = Metabolic stability in human plasma assessed as parent compound remaining at 10 uM measured after 30 mins; format: ADME, cell-free; conditions: read-out: Stabilty
[27] = Metabolic stability in human plasma assessed as parent compound remaining at 10 uM measured after 1 hr; format: ADME, cell-free; conditions: read-out: Stabilty
[28] = Metabolic stability in rat plasma assessed as parent compound remaining at 10 uM measured after 1 hr; format: ADME, cell-free; conditions: read-out: Stabilty
[29] = Metabolic stability in rat plasma assessed as parent compound remaining at 10 uM measured after 2 hrs; format: ADME, cell-free; conditions: read-out: Stabilty
A549 [30] = assay: Potentiation of etoposide-induced cell cycle arrest in human A549 cells assessed as accumulation at sub G1 phase at 5 uM in presence of etoposide after 48 hrs by flow cytometric analysis (Rvb =33 %); format: functional
A549 [31] = assay: Potentiation of cisplatin-induced cell cycle arrest in human A549 cells assessed as accumulation at G1 phase at 5 uM in presence of cisplatin after 48 hrs by flow cytometric analysis (reference value: 14.4%); format: functional
A549 [32] = assay: Potentiation of cisplatin-induced cell cycle arrest in human A549 cells assessed as accumulation at G1 phase at 10 uM in presence of cisplatin after 48 hrs by flow cytometric analysis (reference value: 14.4%); format: functional
A549 [33] = assay: Potentiation of etoposide-induced cell cycle arrest in human A549 cells assessed as accumulation at S phase at 10 uM in presence of etoposide after 48 hrs by flow cytometric analysis (Rvb =12.3%); format: functional
A549 [34] = assay: Potentiation of cisplatin-induced cell cycle arrest in human A549 cells assessed as accumulation at S phase at 5 uM in presence of cisplatin after 48 hrs by flow cytometric analysis (Rvb =15.8%); format: functional
[35] = Increase in recruitment of […] p27KIP1 to CDK4 in human A549 cells assessed as fold change at 10 uM incubated for 12 hrs by immunoprecipitation/immunoblot analysis (reference value: 0.16); format: functional
[36] = Increase in recruitment of […] p27KIP1 to CDK6 in human A549 cells assessed as fold change at 10 uM incubated for 12 hrs by immunoprecipitation/immunoblot analysis (reference value: 0.56); format: functional
A549 [37] = assay: Potentiation of etoposide-induced apoptosis in human A549 cells assessed as late apoptotic cells at 10 uM incubated for 48 hrs by AnnexinV-FITC/propidium iodide staining based flow cytometry (reference value: 12.6%); format: functional

remaining at 0.5 h, 1 µM [25]: 71.2% | remaining at 0.5 h, 10 µM [26]: 113% | remaining at 1 h, 10 µM [27]: 85.1% | remaining at 1 h, 10 µM [28]: 22% | remaining at 2 h, 10 µM [29]: 24.8%
SMILES: CN(C)C(=O)NCCCN(C)C1=Nc2ccccc2C(CC(=O)NCc2ccc(F)cc2)N1c1ccc(C2CCCCC2)cc1 (configuration not stated)
pIC50 (A549 [1]): 5.14 | Activity (A549 [2]): 4.7% | fold change (FC) (A549 [3]): 0.26 | Activity (A549 [4]): Dose-dependent effect | fold change (FC) (A549 [5]): 0.46 | fold change (FC) (A549 [6]): 0.88 | fold change (FC) (A549 [7]): 0.59 | fold change (FC) (A549 [8]): 0.7 | fold change (FC) (A549 [9]): 0.55 | fold change (FC) (A549 [10]): 0.47 | fold change (FC) (A549 [11]): 0.37 | fold change (FC) (A549 [12]): 0.86 | Activity (A549 [13]): Dose-dependent effect | Activity (A549 [14]): Tde | fold change (FC) (A549 [15]): 0.42 | fold change (FC) (A549 [16]): 0.49 | Activity (A549 [17]): Tde | fold change (FC) (A549 [18]): 0.13 | Activity (A549 [19]): Dose-dependent effect | fold change (FC) [20]: 0.62 | fold change (FC) [21]: 0.3 | fold change (FC) [22]: 0.65 | fold change (FC) [23]: 1.05 | fold change (FC) [24]: 1.52 | Activity (A549 [30]): 43.4% | Activity (A549 [31]): 24.5% | Activity (A549 [32]): 32.4% | Activity (A549 [33]): 6.2% | Activity (A549 [34]): 16.8% | fold change (FC) [35]: 0.62 | fold change (FC) [36]: 0.68 | Activity (A549 [37]): 12.9%
